In data set [1] the target is T1, cloned human kappa receptor (Homo sapiens, UniProt P41145). The data set can be described thus: biochemical. In kind it is binding.
Data set [2] relates to formalin-induced flinching. The data set can be described thus: animal or person. In kind it is in vivo, male Sprague-Dawley rats. To be noted: for inhibition in vivo at 0.3 µM: Rattus norvegicus, read-out: Formalin (% A @ 300 nM) i. paw.
The target of data set [3] is T1, cloned human kappa receptor. The data set can be described thus: [3H]U69593 (agonist) binding to the cloned human kappa receptor.
The mark [4] stands for this setting: Table IA, read-out: Ki(nM) (3H)-Diprenorphin.
The mark [5] stands for this setting: read-out: Ki(nM) [3H]-Diprenorphin κ.

“And” between values parts separate entries of the source, which are not always exact repeats. Equal entries are not always repeated. Structures can show the parent of a compound that is named as a salt. Bounds are passed on as bounds.

T1 sequence (P41145 whole entry): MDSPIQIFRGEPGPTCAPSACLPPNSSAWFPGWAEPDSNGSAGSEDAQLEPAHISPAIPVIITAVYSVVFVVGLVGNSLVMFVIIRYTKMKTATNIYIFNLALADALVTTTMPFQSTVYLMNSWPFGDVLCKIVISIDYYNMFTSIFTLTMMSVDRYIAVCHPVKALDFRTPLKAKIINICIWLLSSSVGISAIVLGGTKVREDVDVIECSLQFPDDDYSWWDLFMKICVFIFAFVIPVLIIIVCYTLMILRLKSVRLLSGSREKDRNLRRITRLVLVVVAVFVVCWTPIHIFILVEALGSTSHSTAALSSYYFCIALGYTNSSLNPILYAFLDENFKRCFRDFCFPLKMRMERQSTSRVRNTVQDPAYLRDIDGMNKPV

Consider `CN(C(=O)Cc1ccccc1C(=O)O)[C@H](CN1CCCC1)c1ccccc1.Cl` [Example 3kk, 2-(2-Carboxyphenyl)-N-methyl-N-{[1S]-1-phenyl-2-(1-pyrrolidinyl)ethyl}acetamide hydrochloride], for which the melting point – broadly, the temperature, or range, at which the solid turns liquid – is 230 to 232 °C (dec.). Also, the “[3H]-Diprenorphin κ, % @ 1 μM” value in data set [1] came out at 53% @ 1 μM. Also, in data set [2] (rat, in vivo), the “Late Phase Formalin, % @ 300” value was determined as 23% @ 300.

As to `CN(C(=O)Cc1ccc(C(F)(F)F)cc1)[C@H](CN1CCCC1)c1cccc(NS(C)(=O)=O)c1.Cl` [Example 3d, 2-(4-Trifluoromethylphenyl)-N-methyl-N-{[1S]-1-[3-[(methylsulfonyl)amino]phenyl]-2-[1-pyrrolidinyl]ethyl}acetamide hydrochloride], the melting point was in the range of 173 to 175 °C. Besides, the affinity in data set [1] (Ki (nM) [3H]-Diprenorphin κ) corresponds to a Ki of 0.28 nM. Further, in data set [2] (rat, in vivo), the “Late Phase Formalin A50” value is reported as 16.0 mg/kg.

With `CN(C(=O)Cc1ccc(Cl)c(Cl)c1)[C@H]1c2cc(S(=O)(=O)N(C)Cc3ccccc3)ccc2CC[C@@H]1N1CCCC1` (racemic) [II-16], the Ki (usually the dissociation constant of the complex between target and ligand, obtained from inhibition or displacement) in data set [1] (Ki (nM) k [3H] Diprenorphin) worked out at 200 nM; in data set [3] (Ki (nM) k (mg) [3H]U69,593) it was 40 nM.

`CC(C)(C)OC(=O)N[C@H](CC(=O)OCc1ccccc1)C(=O)N1CCN(C(=O)Cc2ccc(Cl)c(Cl)c2)[C@H](CN2CCCC2)C1` [(R-3d), (R)-4-N-t-Boc-D-aspartic acid-β-benzyl ester-1-[(3,4-dichlorophenyl)acetyl]-2-[(1-pyrrolidinyl)methyl]-piperazine]: the “3H-Diprenorphin, % @ 1 uM” value in data set [1] came to 36% @ 1 uM. The Ki in data set [3] (read-out: Ki, nM 3H-U-69,593) is 379 nM and 249 nM.

Take `CS(=O)(=O)c1ccc(CC(=O)N2CCN(S(C)(=O)=O)CC2CN2CCCC2)cc1` (racemic) [(R,S-8b), (R,S)-4-Methanesulfonyl-1-[(4-methylsulfonylphenyl)acetyl]-2-[(1-pyrrolidinyl)-methyl]piperazine hydrochloride]: the inhibition at 1 µM in data set [1] (read-out: 3H-Diprenorphin, % @ 1 uM) amounted to 41%. Further, the Ki in data set [3] (Ki, nM 3H-U-69,593) is 20 nM and 31 nM.

Molecule `CN(C(=O)Cc1ccc(S(C)(=O)=O)cc1)[C@H](CN1CCCC1)c1cccc(NS(C)(=O)=O)c1.CS(=O)(=O)O` [Example 3e, 2-(4-Methanesulfonylphenyl)-N-methyl-N-{[1S]-1-[3-[(methylsulfonyl)amino]phenyl]-2-[1-pyrrolidinyl]ethyl}acetamide methanesulfonate] came in with a melting point of 140 to 142 °C. In data set [1] (Ki (nM) [3H]-Diprenorphin κ), this molecule gave a Ki of 3.2 nM. Also, in data set [2] (rat, in vivo), the “Late Phase Formalin, % @ 300” value amounted to 71% @ 300.

Regarding `CNS(=O)(=O)c1cc(CC(=O)N(C)[C@H](CN2CCCC2)c2ccccc2)ccc1F.Cl` [Example 3o, 2-[3-(N-Methylsulfamoyl)-4-fluorophenyl]-N-methyl-N-{[1S]-1-phenyl-2-[1-pyrrolidinyl]ethyl}acetamide hydrochloride], the melting point fell in the range of 278 to 280 °C. Moreover, the Ki in data set [1] (Ki (nM) [3H]-Diprenorphin κ) is 30.5 nM. Moreover, the “Late Phase Formalin, % @ 300” value in data set [2] (rat, in vivo) was determined as 59% @ 300.

In turn, `CN(C(=O)Cc1ccc(Cl)c(Cl)c1)[C@H](CN1CCCC1)c1cccc(NC(=O)/C=C\C(=O)O)c1` [Example 3h] registered a melting point of 174 to 176 °C. Besides, the Ki in data set [1] (Ki (nM) [3H]-Diprenorphin κ) stood at 1.8 nM. In data set [2] (rat, in vivo), the “Late Phase Formalin, % @ 10” value turned out to be 59% @ 10.

For `COC(=O)N1CCN(C(=O)Cc2ccccc2N(S(C)(=O)=O)S(C)(=O)=O)C(CN2CCCC2)C1` (racemic) [Example 1d, Methyl-4-[(2-[N,N-bis-methylsulfonamido]phenyl)acetyl]-3-(R,S)-[(1-pyrrolidinyl)methyl]-1-piperazinecarboxylate hydrochloride], affinity in data set [1] (Ki, nM 3H-Diprenorphin) was put at a Ki of 7.6 nM. In addition, in data set [2], the inhibition in vivo at 0.3 µM stood at 77%.

`CN(C(=O)Cc1ccc(O)c(NS(C)(=O)=O)c1)[C@H](CN1CCCC1)c1ccccc1` [Example 124, 2-(3-N-Methylsulfonamido-3-amino-4-hydroxyphenyl)-N-methyl-N-[(1S)-1-phenyl-2-(1-pyrrolidinyl)ethyl]acetamide]: affinity in data set [1] (Ki (nM) [3H]-Diprenorphin κ) was put at a Ki of 5.6 nM. The “Late Phase Formalin (i. paw), % @ 300” value in data set [2] (rat, in vivo) is listed as 77% @ 300.

Consider `COc1cc(CC(=O)N(C)[C@H](CN2CCCC2)c2ccccc2)c(S(=O)(=O)N(C)C)cc1OC` [Example 136, 2-[2-(N-Dimethylsulfamoyl)-4,5-dimethoxyphenyl]-N-methyl-N-[(1S)-1-phenyl-2-[(1-pyrrolidinyl)ethyl]]acetamide], for which the affinity in data set [1] (Ki (nM) [3H]-Diprenorphin κ), expressed as Ki, was 0.44 nM. Moreover, the “Late Phase Formalin (i. paw), % @ 300” value in data set [2] (rat, in vivo) is listed as 97% @ 300.

`CN(C(=O)Cc1ccc(C(F)(F)F)cc1NC(=O)/C=C\C(=O)O)[C@H](CN1CCCC1)c1ccccc1` [Example 3z]: the melting point was 153 to 155 °C (dec.). In addition, in data set [1] (Ki (nM) [3H]-Diprenorphin κ), the Ki amounted to 1.7 nM. Besides, the “Late Phase Formalin, % @ 300” value in data set [2] (rat, in vivo) is 98% @ 300.

Regarding `CC(=O)N1CCN(C(=O)Cc2ccc(Cl)c(Cl)c2)C(CN2CCC[C@H]2CO)C1` (mixture of isomers) [Example 1z, 4-Acetyl-1-[(3,4-dichlorophenyl)acetyl]-2-(R,S)-[(2-(S)-pyrrolidinemethanol)methyl]piperazine hydrochloride], the inhibitory constant (Ki) in data set [1] (setting [4]) was 102 nM. In data set [2], the inhibition in vivo at 0.3 µM came out at 71%.

In the case of `CNS(=O)(=O)c1ccc(CC(=O)N(C)[C@H](CN2CC[C@H](O)C2)c2ccccc2)cc1` [Example 146, 2-[4-N-(Methylsulfamoyl)-phenyl]-N-methyl-N-[(1S)-1-phenyl-2-[1-(3S)-(3-hydroxypyrrolidinyl)ethyl]]acetamide], the Ki in data set [1] (Ki (nM) [3H]-Diprenorphin κ) worked out at 1 nM. In addition, in data set [2] (rat, in vivo), the “Late Phase Formalin (i. paw), % @ 300” value is recorded as 52% @ 300.

In data set [1] (Ki, nM 3H-Diprenorphin), `C=CCN1CCN(C(=O)Cc2ccc(Cl)c(Cl)c2)[C@H](CN2CCCC2)C1` [Example 1ff, 4-Allyl-1-[(3,4-dichlorophenyl)acetyl]-2-(R)-[(1-pyrrolidinyl)methyl]piperazine hydrochloride] displayed a Ki of 0.58 nM. The inhibition in vivo at 0.3 µM in data set [2] was determined as 98%.

Regarding `COc1cc(CC(=O)N(C)[C@H](CN2CCCC2)c2ccccc2)c(S(=O)(=O)N2CCCC2)c(OC)c1OC` [Example 143, 2-[2-(N-Pyrrolidinesulfamoyl)-3,4,5-trimethoxyphenyl]-N-methyl-N-[(1S)-1-phenyl-2-[(1-pyrrolidinyl)ethyl]]acetamide], in data set [1] (setting [5]), the Ki worked out at 2.1 nM. Besides, the “Late Phase Formalin (i. paw), % @ 300” value in data set [2] (rat, in vivo) was 98% @ 300.

Take `CN(C(=O)Cc1ccc(Cl)c(S(N)(=O)=O)c1)[C@H](CN1CCCC1)c1ccccc1.CS(=O)(=O)O` [Example 3m, 2-(3-Sulfamoyl-4-chlorophenyl)-N-methyl-N-{[1S]-1-phenyl-2-[1-pyrrolidinyl]ethyl}acetamide methanesulfonate]: the melting point lay in the range of 220 to 222 °C. Besides, the Ki in data set [1] (Ki (nM) [3H]-Diprenorphin κ) amounted to 5.1 nM. For the same molecule, in data set [2] (rat, in vivo), the “Late Phase Formalin, % @ 300” value was 65% @ 300.

`CN(C(=O)Cc1ccc(C(F)(F)F)cc1NS(C)(=O)=O)[C@H](CN1CC[C@H](O)C1)c1ccccc1` [Example 126, 2-(2-N-Methylsulfonamido-2-amino-4-trifluoromethylphenyl)-N-methyl-N-[(1S)-1-phenyl-2-[1-(3S)-(3-hydroxypyrrolidinyl)ethyl]]acetamide] displayed a Ki in data set [1] (Ki (nM) [3H]-Diprenorphin κ) of 0.61 nM. Moreover, the “Late Phase Formalin (i. paw), % @ 300” value in data set [2] (rat, in vivo) is 93% @ 300.

Turning to `COC(=O)CNC(=O)c1ccccc1CC(=O)N(C)[C@H](CN1CCCC1)c1ccccc1` [Example 3mm, Methyl N-[2-(2-pheny)-N-methyl-N-{[1S]-1-phenyl-2-(1-pyrrolidinyl)ethyl}acetamido]2-oxo-glycinate hydrochloride], the Ki in data set [1] (Ki (nM) [3H]-Diprenorphin κ) came out at 16.4 nM. Moreover, the “Late Phase Formalin, % @ 300” value in data set [2] (rat, in vivo) was 53% @ 300.

Regarding `CC(=O)N1CCN(C(=O)Cc2ccc(Cl)c(Cl)c2)C(CN2CC[C@H](OC(=O)Cc3ccc(Cl)c(Cl)c3)C2)C1` (mixture of isomers) [Example 1w, 4-Acetyl-1-[(3,4-dichlorophenyl)acetyl]-2-(R,S)-[3-(S)-(3′,4′-dichlorophenyl acetate)-1-(pyrrolidinyl)methyl]piperazine hydrochloride], the inhibition constant (Ki) in data set [1] (setting [4]) came out at 1160 nM. In addition, the inhibition in vivo at 0.3 µM in data set [2] was determined as 60%.

As for `COC(=O)N1CCN(C(=O)Cc2ccc(Cl)c(Cl)c2)C(CN2CC[C@H](OC(=O)Cc3ccc(Cl)c(Cl)c3)C2)C1` (mixture of isomers) [Example 1q, Methyl-4-[(3,4-dichlorophenyl)acetyl]-2-(R,S)-[3-(S)-(3′,4′-dichlorophenyl acetate)-1-(pyrrolidinyl)methyl]-1-piperazinecarboxylate hydrochloride], the Ki in data set [1] (Ki, nM 3H-Diprenorphin) was found to be 5.2 nM. In addition, the inhibition in vivo at 0.3 µM in data set [2] amounted to 98%.

In data set [1] (Ki, nM 3H-Diprenorphin), `CS(=O)(=O)N1CCN(C(=O)Cc2ccc(Cl)c(Cl)c2)C(CN2CC[C@H](OC(=O)Cc3ccc(Cl)c(Cl)c3)C2)C1` (stereo partly drawn) [Example 1kk, 4-Methylsulphonyl-1-[(3,4-dichlorophenyl)acetyl]-2-(R,S)-[3-(S)-(3′,4′dichlorophenyl acetate)-1-(pyrrolidinyl)methyl]piperazine hydrochloride] showed a Ki of 5.1 nM. Further, the inhibition in vivo at 0.3 µM in data set [2] amounted to 52%.

Molecule `CN(C(=O)Cc1ccc(Cl)c(Cl)c1)[C@H](CN1CCCC1)c1cccc(NS(C)(=O)=O)c1.Cl` [Example 3f, 2-(3,4-Dichlorophenyl)-N-methyl-N-{[1S]-1-[3-[(methylsulfonyl)amino]phenyl]-2-[1-pyrrolidinyl]ethyl}acetamide hydrochloride] came in with a melting point of 240 to 242 °C. Also, the Ki in data set [1] (Ki (nM) [3H]-Diprenorphin κ) is 0.18 nM. Further, in data set [2] (rat, in vivo), the “Late Phase Formalin A50” value was 8.9 mg/kg.

Regarding “(S)-2-(2-N-Methylsulfonamido-2-aminophenyl)-N-methyl-N-1-(4-hydroxyphenyl)-2-(1-pyrrolidinyl)ethyl]acetamide [Example 129B]”, the Ki in data set [1] (setting [5]) amounted to 75 nM. For the same molecule, the “Late Phase Formalin (i. paw), % @ 300” value in data set [2] (rat, in vivo) is recorded as more than 46% @ 300.

As to `CNS(=O)(=O)c1cc(CC(=O)N(C)[C@H](CN2CCCC2)c2ccccc2)ccc1Cl.Cl` [Example 3l, 2-[3-(N-Methylsulfamoyl)-4-chlorophenyl]-N-methyl-N-{[1S]-1-phenyl-2-[1-pyrrolidinyl]ethyl}acetamide hydrochloride], in data set [1] (Ki (nM) [3H]-Diprenorphin κ), the Ki was determined as 3.8 nM. The “Late Phase Formalin, % @ 300” value in data set [2] (rat, in vivo) was 73% @ 300.

The values above are taken from patent US20050020576A1, “Kappa agonist compounds and pharmaceutical formulations thereof” (priority 1996, published 2005).
